The text below walks through data of ChEMBL document CHEMBL4406837, “Cyclin dependent kinase (CDK) inhibitors as anticancer drugs: Recent advances (2015-2019)” (Bioorg Med Chem Lett, 2019).

Data set [1] deals with Cyclin-dependent kinase 5 (Homo sapiens, UniProt Q00535). Nature of the data set: Competitive reversible inhibition of CDK5 (unknown origin).
In data set [2] the test system is HCT-116. Nature of the data set: Anti-tumor activity in human HCT116 cells xenografted in in vivo animal model assessed tumor growth inhibition at 100 mg/kg, qd after 13 days relative to control. The format is functional. Conditions: HCT-116, 312 h, read-out: TGI.
Data set [3] concerns the target Cyclin-dependent kinase 6 (Homo sapiens, UniProt Q00534). Briefly: Competitive reversible inhibition of CDK6 (unknown origin).
In data set [4] the target is Cyclin-dependent kinase 4 (Homo sapiens, UniProt P11802). Briefly: Competitive reversible inhibition of CDK4 (unknown origin).
Data set [5] concerns the target Cyclin-dependent kinase 8 (Homo sapiens, UniProt P49336). Nature of the data set: Competitive reversible inhibition of CDK8 (unknown origin).
In data set [6] the target is Cyclin-dependent kinase 1 (Homo sapiens) (UniProt P06493). Nature of the data set: Inhibition of CDK1 (unknown origin) relative to control. Conditions: concentration not given here.
For data set [7], the target named is T1, Cyclin-dependent kinase 2 (Homo sapiens, UniProt P24941). Nature of the data set: Inhibition of CDK2 (unknown origin) relative to control. The note with it: concentration not given here.
Data set [8] addresses T1, Cyclin-dependent kinase 2. Nature of the data set: Binding affinity to CDK2 (unknown origin) assessed as dissociation rate constant.
For data set [9], the target named is T1, Cyclin-dependent kinase 2. Briefly: Binding affinity to CDK2 (unknown origin) assessed as association rate constant.
For data set [10], the target named is T1, Cyclin-dependent kinase 2. Nature of the data set: Binding affinity to CDK2 (unknown origin) assessed as inactivation constant.
The nature of data set [11]: Clearance in mouse. Conditions: in vivo. Type of data set: ADME, organism-based.
The target in data set [12] is T2, CDK9/cyclin T1 (Homo sapiens, UniProt P50750). Nature of the data set: Competitive irreversible inhibition of CDK9/cyclin T (unknown origin) in presence of Km ATP. The format is protein-complex assay.
T2 sequence (O60563 whole entry): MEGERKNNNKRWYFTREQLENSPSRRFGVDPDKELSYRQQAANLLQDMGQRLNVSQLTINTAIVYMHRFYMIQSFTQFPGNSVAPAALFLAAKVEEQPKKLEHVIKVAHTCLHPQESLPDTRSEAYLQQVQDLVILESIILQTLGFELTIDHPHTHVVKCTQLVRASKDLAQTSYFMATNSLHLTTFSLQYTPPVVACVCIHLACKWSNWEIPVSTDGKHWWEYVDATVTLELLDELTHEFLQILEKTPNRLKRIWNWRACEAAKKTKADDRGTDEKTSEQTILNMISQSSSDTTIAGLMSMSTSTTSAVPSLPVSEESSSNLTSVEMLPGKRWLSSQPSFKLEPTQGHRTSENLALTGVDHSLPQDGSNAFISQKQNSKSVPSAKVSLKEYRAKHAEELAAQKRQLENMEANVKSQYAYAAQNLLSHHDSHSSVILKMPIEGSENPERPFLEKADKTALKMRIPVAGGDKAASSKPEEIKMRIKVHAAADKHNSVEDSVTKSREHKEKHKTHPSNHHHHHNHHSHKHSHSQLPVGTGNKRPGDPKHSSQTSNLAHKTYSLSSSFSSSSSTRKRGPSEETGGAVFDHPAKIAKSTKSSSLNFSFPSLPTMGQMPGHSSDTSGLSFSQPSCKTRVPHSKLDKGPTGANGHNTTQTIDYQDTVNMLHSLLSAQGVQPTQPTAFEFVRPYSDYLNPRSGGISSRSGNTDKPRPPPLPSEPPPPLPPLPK
T2 sequence (P50750 whole entry): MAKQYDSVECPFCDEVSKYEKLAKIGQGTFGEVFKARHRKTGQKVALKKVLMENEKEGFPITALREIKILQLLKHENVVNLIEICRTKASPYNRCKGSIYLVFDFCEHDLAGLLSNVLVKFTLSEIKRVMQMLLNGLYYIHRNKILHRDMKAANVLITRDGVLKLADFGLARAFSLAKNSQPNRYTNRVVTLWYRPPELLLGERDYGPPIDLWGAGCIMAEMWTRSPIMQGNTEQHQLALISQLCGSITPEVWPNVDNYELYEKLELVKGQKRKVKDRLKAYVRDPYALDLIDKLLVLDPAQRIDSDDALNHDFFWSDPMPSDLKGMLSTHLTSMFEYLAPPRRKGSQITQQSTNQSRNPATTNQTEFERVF
Data set [13] has as its target T3, CDK7/Cyclin H/MNAT1 (Homo sapiens, UniProt P50613). Briefly: Competitive irreversible inhibition of CDK7/cyclinH/MAT1 (unknown origin) using 5-FAM YSPTSPSYSPTSPSYSPTSPSKKKK as substrate in presence of Km ATP. The format is protein-complex assay.
The target of data set [14] is T3, CDK7/Cyclin H/MNAT1. Briefly: Competitive irreversible inhibition of CDK7/cyclinH/MAT1 (unknown origin). The format is protein-complex assay.
For data set [15], the target named is T4, CDK12/Cyclin K (Homo sapiens, UniProt Q9NYV4). Nature of the data set: Competitive irreversible inhibition of CDK12/cyclinK (unknown origin) in presence of Km ATP. Type of data set: protein-complex assay.
T4 sequence (O75909 whole entry): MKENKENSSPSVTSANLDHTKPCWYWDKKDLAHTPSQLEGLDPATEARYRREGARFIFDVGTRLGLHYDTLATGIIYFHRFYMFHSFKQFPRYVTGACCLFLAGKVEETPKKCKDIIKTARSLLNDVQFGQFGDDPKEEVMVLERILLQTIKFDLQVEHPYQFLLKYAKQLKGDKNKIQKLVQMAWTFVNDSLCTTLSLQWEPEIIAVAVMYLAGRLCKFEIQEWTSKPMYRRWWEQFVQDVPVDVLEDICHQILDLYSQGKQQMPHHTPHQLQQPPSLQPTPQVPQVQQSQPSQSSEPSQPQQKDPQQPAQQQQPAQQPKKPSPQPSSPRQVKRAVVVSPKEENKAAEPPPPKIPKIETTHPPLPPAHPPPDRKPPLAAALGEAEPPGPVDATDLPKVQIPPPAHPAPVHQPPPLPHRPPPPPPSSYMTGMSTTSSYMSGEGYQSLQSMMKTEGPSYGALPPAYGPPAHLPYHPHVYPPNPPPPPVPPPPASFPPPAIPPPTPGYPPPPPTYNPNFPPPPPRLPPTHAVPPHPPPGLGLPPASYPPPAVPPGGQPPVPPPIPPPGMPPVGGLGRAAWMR
T4 sequence (Q9NYV4 whole entry): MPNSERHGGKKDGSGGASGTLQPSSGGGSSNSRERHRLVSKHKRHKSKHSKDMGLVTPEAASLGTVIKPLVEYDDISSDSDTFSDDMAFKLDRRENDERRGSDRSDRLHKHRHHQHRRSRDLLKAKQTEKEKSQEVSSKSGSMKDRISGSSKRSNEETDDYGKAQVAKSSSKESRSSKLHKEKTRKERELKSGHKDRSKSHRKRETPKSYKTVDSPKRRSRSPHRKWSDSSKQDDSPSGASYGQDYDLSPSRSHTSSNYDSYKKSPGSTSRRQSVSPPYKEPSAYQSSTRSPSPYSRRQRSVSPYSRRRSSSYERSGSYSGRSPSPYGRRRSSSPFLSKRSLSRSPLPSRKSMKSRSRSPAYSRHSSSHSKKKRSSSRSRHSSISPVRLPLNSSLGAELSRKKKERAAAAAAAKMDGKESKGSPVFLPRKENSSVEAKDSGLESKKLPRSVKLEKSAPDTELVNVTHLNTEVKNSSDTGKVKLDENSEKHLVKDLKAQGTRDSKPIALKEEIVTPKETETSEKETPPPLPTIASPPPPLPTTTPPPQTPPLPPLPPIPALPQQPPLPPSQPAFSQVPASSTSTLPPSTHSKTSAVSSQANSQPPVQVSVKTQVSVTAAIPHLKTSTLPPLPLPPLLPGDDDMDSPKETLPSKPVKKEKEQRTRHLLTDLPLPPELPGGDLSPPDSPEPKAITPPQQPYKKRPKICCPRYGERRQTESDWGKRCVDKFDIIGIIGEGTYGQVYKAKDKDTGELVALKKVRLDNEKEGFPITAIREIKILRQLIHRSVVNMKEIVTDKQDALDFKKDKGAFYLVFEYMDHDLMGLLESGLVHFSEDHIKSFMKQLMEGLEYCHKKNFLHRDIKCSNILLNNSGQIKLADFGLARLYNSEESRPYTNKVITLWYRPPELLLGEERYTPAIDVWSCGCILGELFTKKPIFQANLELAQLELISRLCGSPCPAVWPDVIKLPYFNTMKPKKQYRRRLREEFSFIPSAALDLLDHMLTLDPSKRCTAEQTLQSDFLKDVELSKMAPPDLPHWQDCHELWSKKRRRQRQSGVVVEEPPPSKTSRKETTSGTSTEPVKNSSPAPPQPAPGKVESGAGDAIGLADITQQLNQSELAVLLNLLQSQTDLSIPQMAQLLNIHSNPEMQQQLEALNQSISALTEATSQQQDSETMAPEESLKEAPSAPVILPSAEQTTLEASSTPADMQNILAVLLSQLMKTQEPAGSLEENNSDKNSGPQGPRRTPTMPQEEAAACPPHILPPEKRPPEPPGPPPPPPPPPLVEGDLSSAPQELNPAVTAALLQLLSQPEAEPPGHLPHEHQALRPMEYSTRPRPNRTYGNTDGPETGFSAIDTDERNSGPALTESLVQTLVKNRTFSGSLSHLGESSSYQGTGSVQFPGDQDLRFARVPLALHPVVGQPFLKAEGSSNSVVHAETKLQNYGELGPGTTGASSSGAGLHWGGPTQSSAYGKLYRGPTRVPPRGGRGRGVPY
The subject of data set [16] is HL-60. Briefly: Antiproliferative activity against human HL60 cells after 72 hrs by CellTiter-Glo assay. Type of data set: functional, cell-based. Conditions: HL-60, 72 h.
Data set [17] deals with T5, CDK7/Cyclin H/MNAT1 (Homo sapiens) (UniProt P51946+P50613+P51948). Briefly: Ratio of Ki CDK7/cyclinH/MAT1 (unknown origin) to Kinact CDK7/cyclinH/MAT1 (unknown origin) assessed as inactivation constant. Type of data set: protein-complex assay.
For data set [18], the target named is T3, CDK7/Cyclin H/MNAT1. Briefly: Competitive irreversible inhibition of CDK7/cyclinH/MAT1 (unknown origin) using 5-FAM YSPTSPSYSPTSPSYSPTSPSKKKK as substrate in presence of 2 mM ATP. Type of data set: protein-complex assay.
In data set [19] the target is T3, CDK7/Cyclin H/MNAT1. Briefly: Competitive irreversible inhibition of CDK7/cyclinH/MAT1 (unknown origin) using 5-FAM YSPTSPSYSPTSPSYSPTSPSKKKK as substrate. The format is protein-complex assay.
For data set [20], the target named is T5, CDK7/Cyclin H/MNAT1 (Homo sapiens). Briefly: Competitive irreversible inhibition of CDK7/cyclinH/MAT1 (unknown origin) assessed as inactivation constant using 5-FAM YSPTSPSYSPTSPSYSPTSPSKKKK as substrate. The format is protein-complex assay.
The test system of data set [21] is Hs 683. Nature of the data set: Antiproliferative activity against human Hs683 cells. The format is functional, cell-based.
Data set [22] deals with Serine/threonine-protein kinase Nek10 (Homo sapiens, UniProt Q6ZWH5). Briefly: Binding affinity to NEK10 (unknown origin).
For data set [23], the target named is Cyclin-dependent kinase 4/cyclin D1 (Homo sapiens, UniProt P11802). Nature of the data set: Inhibition of human CDK4/cyclinD1. The format is protein-complex assay.
The target of data set [24] is Receptor-type tyrosine-protein kinase FLT3 (Homo sapiens, UniProt P36888, ITD). Briefly: Binding affinity to human FLT3 ITD mutant.
Data set [25] deals with CDK9/Cyclin-H (Homo sapiens, UniProt P50750+P51946). Nature of the data set: Inhibition of CDK9/cyclin H (unknown origin). The format is protein-complex assay.
Sequence of CDK9/Cyclin-H (P51946 whole entry): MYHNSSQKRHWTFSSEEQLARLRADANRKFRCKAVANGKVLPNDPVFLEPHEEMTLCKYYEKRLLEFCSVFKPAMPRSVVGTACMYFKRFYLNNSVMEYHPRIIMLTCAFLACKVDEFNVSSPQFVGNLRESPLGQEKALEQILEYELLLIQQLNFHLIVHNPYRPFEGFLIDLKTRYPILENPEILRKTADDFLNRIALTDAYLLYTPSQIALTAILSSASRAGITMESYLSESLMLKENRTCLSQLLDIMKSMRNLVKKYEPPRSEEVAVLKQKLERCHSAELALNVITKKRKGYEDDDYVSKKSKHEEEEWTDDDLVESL
Sequence of CDK9/Cyclin-H (P50750 whole entry): as the sequence (P50750 whole entry) above
Data set [26] has as its target Receptor-type tyrosine-protein kinase FLT3 (Homo sapiens, UniProt P36888, D835V). Nature of the data set: Binding affinity to human FLT3 D835V mutant.
In data set [27] the target is T6, Cyclin-dependent kinase 2/cyclin E1 (Homo sapiens, UniProt P24941). Briefly: Inhibition of human CDK2/cyclin E. The format is protein-complex assay.
The target in data set [28] is NUAK family SNF1-like kinase 2 (Homo sapiens, UniProt Q9H093). Nature of the data set: Binding affinity to SNARK (unknown origin).
Data set [29] addresses T3, CDK7/Cyclin H/MNAT1. Briefly: Competitive irreversible inhibition of CDK7/cyclinH/MAT1 (unknown origin) in presence of 1 mM ATP. Type of data set: protein-complex assay.
Data set [30] can be described thus: Antiproliferative activity against imatinib-resistant human K562R-1 cells. Type of data set: functional.
The test system of data set [31] is K562. Briefly: Antiproliferative activity against wild type human K562 cells. Type of data set: functional, cell-based.
Data set [32] can be described thus: Antiproliferative activity against imatinib-resistant human K562R-2 cells. The format is functional.
For data set [33], the target named is T1, Cyclin-dependent kinase 2. Nature of the data set: Inhibition of CDK2 (unknown origin).
For data set [34], the system named is MCF7. Briefly: Antiproliferative activity against human MCF7 cells. The format is functional, cell-based.
Data set [35] relates to OVCAR-3. Nature of the data set: Antiproliferative activity against human OVCAR3 cells. Type of data set: functional, cell-based.
Data set [36] addresses Cyclin-dependent kinase 13/Cyclin-K (Homo sapiens, UniProt Q14004).
The target of data set [37] is T4, CDK12/Cyclin K.
The target in data set [38] is T6, Cyclin-dependent kinase 2/cyclin E1. Nature of the data set: Competitive reversible inhibition of CDK2/cyclin E (unknown origin). The format is protein-complex assay.
For data set [39] the target is unchanged. Briefly: Competitive irreversible inhibition of CDK2/cyclin E (unknown origin). The format is protein-complex assay.
For data set [40], the target named is T2, CDK9/cyclin T1. Nature of the data set: Competitive irreversible inhibition of CDK9/cyclin T (unknown origin). The format is protein-complex assay.
Data set [41] addresses Cyclin-dependent kinase 14/Cyclin-Y (Homo sapiens, UniProt O94921+Q8ND76). Briefly: Competitive irreversible inhibition of CDK14/cyclin Y (unknown origin) in presence of Km ATP. The format is protein-complex assay.

pEC50, pIC50, pKd, pKi: −log10 of the molar value.

Sequence of Cyclin-dependent kinase 5 (Q00535 whole entry): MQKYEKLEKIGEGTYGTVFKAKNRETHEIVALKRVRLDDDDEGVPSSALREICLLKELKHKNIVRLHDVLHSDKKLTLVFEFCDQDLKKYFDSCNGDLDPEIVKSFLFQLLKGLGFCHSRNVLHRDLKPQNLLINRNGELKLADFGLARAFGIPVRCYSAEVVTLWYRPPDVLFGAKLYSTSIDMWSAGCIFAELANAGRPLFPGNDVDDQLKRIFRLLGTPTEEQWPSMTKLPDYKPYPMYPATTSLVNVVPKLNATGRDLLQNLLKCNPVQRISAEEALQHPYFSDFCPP
T3 sequence (P51946 whole entry): as the sequence (P51946 whole entry) above
T3 sequence (P50613 whole entry): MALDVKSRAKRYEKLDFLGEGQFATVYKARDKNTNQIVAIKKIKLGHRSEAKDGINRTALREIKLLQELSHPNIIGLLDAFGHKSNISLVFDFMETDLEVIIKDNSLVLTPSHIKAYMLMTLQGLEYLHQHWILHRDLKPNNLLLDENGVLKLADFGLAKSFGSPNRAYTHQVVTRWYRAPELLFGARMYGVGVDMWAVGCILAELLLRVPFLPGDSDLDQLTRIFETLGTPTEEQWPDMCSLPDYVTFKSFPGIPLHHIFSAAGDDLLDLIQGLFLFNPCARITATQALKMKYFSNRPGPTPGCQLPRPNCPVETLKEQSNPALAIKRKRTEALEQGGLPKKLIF
T3 sequence (P51948 whole entry, further chain): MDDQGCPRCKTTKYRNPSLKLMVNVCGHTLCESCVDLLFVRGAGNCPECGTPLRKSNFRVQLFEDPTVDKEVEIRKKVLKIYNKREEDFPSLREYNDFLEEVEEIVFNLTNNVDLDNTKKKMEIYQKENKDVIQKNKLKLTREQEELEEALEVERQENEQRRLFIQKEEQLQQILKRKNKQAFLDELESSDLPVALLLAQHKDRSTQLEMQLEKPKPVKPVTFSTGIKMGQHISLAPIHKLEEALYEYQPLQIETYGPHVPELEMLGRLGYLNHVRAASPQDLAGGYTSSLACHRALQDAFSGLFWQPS
Sequence of Cyclin-dependent kinase 8 (P49336 whole entry): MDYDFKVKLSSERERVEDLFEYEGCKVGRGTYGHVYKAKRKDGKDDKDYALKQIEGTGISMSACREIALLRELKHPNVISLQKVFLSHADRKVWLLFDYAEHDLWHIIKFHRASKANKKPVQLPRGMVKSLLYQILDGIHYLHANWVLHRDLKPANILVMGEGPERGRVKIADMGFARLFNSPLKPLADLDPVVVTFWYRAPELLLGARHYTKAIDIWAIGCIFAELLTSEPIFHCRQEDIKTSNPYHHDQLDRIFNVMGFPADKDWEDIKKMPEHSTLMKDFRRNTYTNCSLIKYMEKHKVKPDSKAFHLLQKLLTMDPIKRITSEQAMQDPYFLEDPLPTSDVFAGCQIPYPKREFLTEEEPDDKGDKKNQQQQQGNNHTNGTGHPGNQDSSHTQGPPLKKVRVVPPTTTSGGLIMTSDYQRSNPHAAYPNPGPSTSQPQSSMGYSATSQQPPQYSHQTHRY

As to `CC(C)c1cnn2c(NCc3ccccc3)cc(NC[C@H]3CCNC[C@@H]3O)nc12` [CT-7001], the pIC50 (commonly −log10 of the IC50, conventionally taken in molar units) in data set [1] is 5.03; in [3] it was 4.47; in [4], 4.31; in data set [5], 5.92. In addition, the inhibition in vivo at 100 mg/kg in data set [2] was 60%.
As to `C=CC(=O)N1CCN(C(=O)OC(C)(C)C)c2ccccc21`, the inhibition (as a rule, the change of the read-out against control, counted positive when it falls) was 2% in data set [6] and 83% in data set [7].
For `C=CS(=O)(=O)c1ccc(Nc2nc(OCC3CCCCC3)c3nc[nH]c3n2)cc1`, the K stood at 0.07 s⁻¹ in data set [8] and 0.55 ×10⁶ /M/s in [9]. The Kinact in data set [10] turned out to be 5 ×10³ /M/s.
For the molecule `CN(C)C/C=C/C(=O)Nc1ccc(C(=O)N[C@H]2CCC[C@@H](Nc3ncc(Cl)c(-c4c[nH]c5ccccc45)n3)C2)cc1`, in data set [11], the clearance – broadly, the rate of elimination divided by the concentration – came out at 17 mL/min/kg. The pIC50 was 6.20 in data set [12], 6.95 in [13], 6.51 in data set [15] and 6.04 in [18]. Besides, the pEC50 (in general, −log10 of the EC50, conventionally taken in molar units) in [14] was 7.32; in data set [16], 7.89. In data set [17], the Ratio was determined as 0.013 µM⁻¹ s⁻¹. The pKi – broadly, the negative decadic logarithm of the Ki, by convention in mol/L – in data set [19] was 6.98. In [20], the Kinact came out at 4.8 h⁻¹.
Regarding `CC(C)c1cnn2c(NCc3ccccc3)cc(NCCCCCCN)nc12`, the pIC50 was 5.52 in data set [1], 4.33 in [3], 4.48 in data set [4] and 5.38 in data set [5].
`CN1CCN(c2ccc(Nc3ncc4cc5n(c4n3)C3(CCCCC3)CNC5=O)nc2)CC1` [TRILACICLIB]: the pIC50 in [21] was 7.52.
Take `CC(C)N1CCN(c2ccc(Nc3ncc4cc5n(c4n3)C3(CCCCC3)CNC5=O)nc2)CC1` [LEROCICLIB]: the pKd (usually the negative decadic logarithm of the Kd, by convention in mol/L) in [22] is 9.70; in data set [24], 8.19; in data set [26], 7.66; in [28], 9.15. For the same molecule, the pEC50 in data set [23] and in [27] was above 7.00 throughout. Moreover, the pIC50 in data set [25] is 6.55.
Turning to `C=CC(=O)Nc1ccc(C(=O)Nc2n[nH]c3c2CN(C(=O)N[C@H](CN(C)C)c2ccccc2)C3(C)C)cc1`, the pIC50 in data set [29] is 7.28.
Regarding `CC(C)c1cnn2c(NCc3ccccc3)cc(N[C@@H](CO)[C@H](O)CO)nc12`, the pIC50 in data set [5] was 7.05.
Consider `C=CC(=O)N1CCN(C(=O)OC)c2ccccc21`, for which the inhibition in data set [6] was -2%; in [7], 5%.
Turning to `CN(C)C/C=C/C(=O)Nc1ccc(C(=O)N[C@@]2(C)CCC[C@@H](Nc3ncc(Cl)c(-c4c[nH]c5ccccc45)n3)C2)nc1`, in data set [11], the clearance worked out at 6 mL/min/kg. Moreover, the pIC50 is 6.04 in data set [12], 7.08 in [13], 7.70 in [15] and 6.23 in [18]. Moreover, the pEC50 in data set [14] is 7.89; in data set [16], 8.10. Further, the pKi in data set [19] is 7.76.
As to `O=C1Nc2ccc([N+](=O)[O-])cc2/C1=C1/Nc2ccc(O)cc2/C1=N\O`, the pIC50 in data set [30] was 6.07; in [31] it was 6.17; in [32], 6.15; in [33], 7.22 to 8.70.
Take `CN(C)C/C=C/C(=O)Nc1ccc(C(=O)N2CCC[C@@H](Nc3ncc(Cl)c(-c4c[nH]c5ccccc45)n3)C2)cc1`: the pIC50 in data set [12] is 6.08.
Molecule `CN(C)C/C=C/C(=O)Nc1ccc(C(=O)N[C@H]2CCC[C@@H](Nc3ncc(Cl)c(-c4c[nH]c5ccccc45)n3)C2)nc1` had a clearance in data set [11] of 29 mL/min/kg. Also, the pIC50 is 6.65 in [12], 7.64 in data set [13] and 6.69 in [18]. The values for the pEC50 in [14] and in data set [16] were 8.40 and 8.52, respectively. Further, the Ratio in data set [17] amounted to 0.05 µM⁻¹ s⁻¹. The molecule further showed a pKi in data set [19] of 7.20. Besides, the Kinact in [20] was determined as 11.3 h⁻¹.
In the case of `C[C@@]1(O)CCC[C@H]1n1c(=O)c(C(F)F)cc2cnc(NC3CCN(S(C)(=O)=O)CC3)nc21` [EBVACICLIB], the pIC50 in [34] and in data set [35] was 7.32 each time.
As to `CN(C)C/C=C/C(=O)Nc1ccc(C(=O)Nc2cccc(Nc3ncc(Cl)c(-c4c[nH]c5ccccc45)n3)c2)cc1`, in data set [11], the clearance came out at 129 mL/min/kg. The pIC50 is 6.20 in [36], 6.43 in data set [15] and 6.05 in [37]. Further, the pEC50 in data set [16] is 7.42.
For `CC[C@H](Nc1nc(NCc2cnc(C)cc2C)c2ncn(C(C)C)c2n1)[C@@H](C)O` [CYC-065], the figures for the pIC50 in data set [1] and in data set [38] were 7.64 and 8.30, respectively.
`C=CC(=O)Nc1cccc(Nc2cc(N3CCCC[C@H]3CCO)nc3c(CC)cnn23)c1`: the figures for the pIC50 in data set [39] and in [40] were 6.03 and 7.70, respectively.
For the molecule `CN(C)C/C=C/C(=O)Nc1cccc(S(=O)(=O)N2CCC(NC(=O)c3n[nH]cc3NC(=O)c3c(Cl)cc(Cl)cc3Cl)CC2)c1`, the pIC50 in data set [41] was 7.06.
